Assay results: patent US20210186960A1, “MODULATORS OF INDOLEAMINE 2,3-DIOXYGENASE” (GLAXOSMITHKLINE INTELLECTUAL PROPERTY DEVELOPMENT LIMITED, priority 2017, published 2021)

System: human peripheral blood mononuclear cells (PBMC)
Assay: PBMC cytotoxicity assay (CellTiter-Glo)
Type: cell-based
Details: pCC50, CellTiter-Glo, stimulated human PBMC, 2 days
Procedure: Compounds of the present invention were tested via high-throughput cellular assays utilizing detection of kynurenine via mass spectrometry and cytotoxicity as end-points. For the mass spectrometry and cytotoxicity assays, human peripheral blood mononuclear cells (PBMC) (PB003F; AllCells®, Alameda, Calif.) were stimulated with human interferon-γ (IFN-γ) (Sigma-Aldrich Corporation, St. Louis, Mo.) and lipopolysaccharide from Salmonella minnesota (LPS) (Invivogen, San Diego, Calif.) to induce the expression of indoleamine 2, 3-dioxygenase (IDO1). Compounds with IDO1 inhibitory properties decreased the amount of kynurenine produced by the cells via the tryptophan catabolic pathway. Cellular toxicity due to the effect of compound treatment was measured using CellTiter-Glo® reagent (CTG) (Promega Corporation, Madison, Wis.), which is based on luminescent detection of ATP, an indicator of metabolically active cells.
In preparation for the assays, test compounds were serially diluted 3-fold in
DMSO from a typical top concentration of 1 mM or 5 mM and plated at 0.5 μL in 384-well, polystyrene, clear bottom, tissue culture treated plates with lids (Greiner Bio-One, Kremsmünster, Austria) to generate 11-point dose response curves. Low control wells (0% kynurenine or 100% cytotoxicity) contained either 0.5 μL of DMSO in the presence of unstimulated (−IFN-γ/−LPS) PBMCs for the mass spectrometry assay or 0.5 μL of DMSO in the absence of cells for the cytotoxicity assay, and high control wells (100% kynurenine or 0% cytotoxicity) contained 0.5 μL of DMSO in the presence of stimulated (+IFN-γ/+LPS) PBMCs for both the mass spectrometry and cytotoxicity assays.
Frozen stocks of PBMCs were washed and recovered in RPMI 1640 medium (Thermo Fisher Scientific, Inc., Waltham, Mass.) supplemented with 10% v/v heat-inactivated fetal bovine serum (FBS) (Thermo Fisher Scientific, Inc., Waltham, Mass.), and 1× penicillin-streptomycin antibiotic solution (Thermo Fisher Scientific, Inc., Waltham, Mass.). The cells were diluted to 1,000,000 cells/mL in the supplemented RPMI 1640 medium. 50 μL of either the cell suspension, for the mass spectrometry assay, or medium alone, for the cytotoxicity assay, were added to the low control wells, on the previously prepared 384-well compound plates, resulting in 50,000 cells/well or 0 cells/well respectively. IFN- y and LPS were added to the remaining cell suspension at final concentrations of 100 ng/ml and 50 ng/ml respectively, and 50 μL of the stimulated cells were added to all remaining wells on the 384-well compound plates. The plates, with lids, were then placed in a 37 °C, 5% CO2 humidified incubator for 2 days.
Following incubation, the 384-well plates were removed from the incubator and allowed to equilibrate to room temperature for 30 minutes. For the cytotoxicity assay, CellTiter-Glo® was prepared according to the manufacturer's instructions, and 40 μL were added to each plate well. After a twenty minute incubation at room temperature, luminescence was read on an EnVision® Multilabel Reader (Perkin Elmer Inc., Waltham, Mass.). For the mass spectrometry assay, 10 μL of supernatant from each well of the compound-treated plates were added to 40 μL of acetonitrile, containing 10 μM of an internal standard for normalization, in 384-well, polypropylene, V-bottom plates (Greiner Bio-One, Kremsmunster, Austria) to extract the organic analytes. Following centrifugation at 2000 rpm for 10 minutes, 10 μL from each well of the acetonitrile extraction plates were added to 90 μL of sterile, distilled H2O in 384-well, polypropylene, V-bottom plates for analysis of kynurenine and the internal standard on the RapidFire 300 (Agilent Technologies, Santa Clara, Calif.) and 4000 QTRAP MS (SCIEX, Framingham, Mass.). MS data were integrated using Agilent Technologies' RapidFire Integrator software, and data were normalized for analysis as a ratio of kynurenine to the internal standard. […]

CC(C)CN(c1ccc([C@H](C)CC(=O)O)cc1Nc1cnc(Cl)cn1)C1CCOCC1 [intermediate C4]
PBMC TOX PXC50: <5
